According to publication PMC9460261, “Need for a Standardized Translational Drug Development Platform: Lessons Learned from the Repurposing of Drugs for COVID-19” (Microorganisms, 2022):
Counter-ions that a name gives are not always drawn. Like-named read-outs stand apart in the source and are kept apart here.

Legend:
[1] = test system: SARS-CoV-2 in A549-Dual hACE2-TMPRSS2 cells; conditions: for EC50: read-out: A549-Dual hACE2-TMPRSS2 cells Average EC50
[2] = test system: SARS-CoV-2 in Human Airway Epithelia (HAE)
[3] = test system: SARS-CoV-2 in A549-Dual hACE2-TMPRSS2 cells; test: microbe, parasite or virus in culture; conditions: Severe acute respiratory syndrome coronavirus 2, read-out: A549-Dual hACE2-TMPRSS2 cells Average EC50

Molecule	Activity In Vitro; Potency EC50 or IC50 < 10 µM; A549 Cells [1]	Activity Ex Vivo Human Airway Epithelia (HAE) [2]	EC50 [3] [µM]	Concentration showing activity / complete inhibition of viral replication in HAE [2] [µM]	Toxicity observed (^T), A549 Cells [1]	EC50 [1] [µM]	A549-Dual hACE2-TMPRSS2 cells Average EC50 [1]
Nc1c(Br)cc(Br)cc1CN[C@H]1CC[C@H](O)CC1 [Ambroxol, ambroxol]	No (Potency EC50 or IC50 < 10 µM)	No	> 50	–	–	–	–
CCN(CC)Cc1cc(Nc2ccnc3cc(Cl)ccc23)ccc1O [Amodiaquine, amodiaquine]	No (Potency EC50 or IC50 < 10 µM)	No	> 50	–	–	–	–
COC(=O)N[C@H](C(=O)N[C@@H](Cc1ccccc1)[C@@H](O)CN(Cc1ccc(-c2ccccn2)cc1)NC(=O)[C@@H](NC(=O)OC)C(C)(C)C)C(C)(C)C [Atazanavir, atazanavir]	–	–	24	–	–	–	–
CN(C)C(=O)COC(=O)Cc1ccc(OC(=O)c2ccc(NC(=N)N)cc2)cc1 [Camostat mesylate, camostat mesylate]	No (Potency EC50 or IC50 < 10 µM)	Yes	> 50	10	–	–	–
COc1ccc2cc1Oc1ccc(cc1)C[C@H]1c3c(cc4c(c3Oc3cc5c(cc3OC)CCN(C)[C@@H]5C2)OCO4)CCN1C [Cepharanthine, cepharanthine]	No (Potency EC50 or IC50 < 10 µM)	No	> 50	–	–	–	–
CC(C)/N=c1\cc2n(-c3ccc(Cl)cc3)c3ccccc3nc-2cc1Nc1ccc(Cl)cc1 [Clofazimine, clofazimine]	Yes (Potency EC50 or IC50 < 10 µM)	No	2.4	–	Yes ^T	–	–
COc1cc2c(c(OC)c1OC)-c1ccc(OC)c(=O)cc1[C@@H](NC(C)=O)CC2 [Colchicine, colchicine]	Yes ^T (key: Yes: Potency EC50 or IC50 < 10 µM; No: Potency EC50 or IC50 < 10 µM)	No	–	–	–	–	–
COC(=O)N[C@H](C(=O)N1CCC[C@H]1c1nc(-c2ccc(-c3ccc(-c4c[nH]c([C@@H]5CCCN5C(=O)[C@@H](NC(=O)OC)C(C)C)n4)cc3)cc2)c[nH]1)C(C)C [Daclatasvir, daclatasvir]	No (Potency EC50 or IC50 < 10 µM)	No	> 50	–	–	–	–
O=c1nc(NO)ccn1[C@@H]1O[C@H](CO)[C@@H](O)[C@H]1O [EIDD-1931]	–	–	–	–	–	0.47	–
NC(=O)c1nc(F)c[nH]c1=O [Favipiravir, favipiravir]	No (Potency EC50 or IC50 < 10 µM)	No	> 100	–	–	–	–
CNCCC(Oc1ccc(C(F)(F)F)cc1)c1ccccc1 (stereo not drawn) [Fluoxetine, fluoxetine]	No (key: Yes: Potency EC50 or IC50 < 10 µM; No: Potency EC50 or IC50 < 10 µM)	No	–	–	–	–	–
COCCCC/C(=N\OCCN)c1ccc(C(F)(F)F)cc1 [Fluvoxamine maleate, fluvoxamine maleate]	No (key: Yes: Potency EC50 or IC50 < 10 µM; No: Potency EC50 or IC50 < 10 µM)	No	39.9	–	–	–	–
OC(c1cc(C(F)(F)F)nc2c(C(F)(F)F)cccc12)C1CCCCN1 (stereo not drawn) [Mefloquine, mefloquine]	No (Potency EC50 or IC50 < 10 µM)	No	> 50	–	–	–	–
CC(C)C(=O)OC[C@H]1O[C@@H](n2ccc(NO)nc2=O)[C@H](O)[C@@H]1O [Molnupiravir, molnupiravir]	Yes (Potency EC50 or IC50 < 10 µM)	Yes	3.6	10	–	–	–
Cc1c(O)cccc1C(=O)N[C@@H](CSc1ccccc1)[C@H](O)CN1C[C@H]2CCCC[C@H]2C[C@H]1C(=O)NC(C)(C)C [Nelfinavir, nelfinavir]	Yes (Potency EC50 or IC50 < 10 µM)	Yes	3.2	10	Yes ^T	–	–
CC(C)(C)[C@H](NC(=O)C(F)(F)F)C(=O)N1C[C@H]2[C@@H]([C@H]1C(=O)N[C@H](C#N)C[C@@H]1CCNC1=O)C2(C)C [Nirmatrelvir, nirmatrelvir]	Yes (Potency EC50 or IC50 < 10 µM)	Yes	–	1	–	–	–
CC(=O)Oc1ccccc1C(=O)Nc1ncc([N+](=O)[O-])s1 [Nitazoxanide, nitazoxanide]	No (Potency EC50 or IC50 < 10 µM)	–	> 100	5	–	–	–
CC(=O)CCCCn1c(=O)c2c(ncn2C)n(C)c1=O [Pentoxyfilline, pentoxyfilline]	No (Potency EC50 or IC50 < 10 µM)	No	> 50	–	–	–	–
CCCN(CCC)S(=O)(=O)c1ccc(C(=O)O)cc1 [Probenecid, probenecid]	No (Potency EC50 or IC50 < 10 µM)	No	> 50	–	–	–	–
CC1(C)C(=O)N(c2ccc(C#N)c(C(F)(F)F)c2F)C(=S)N1c1ccc(CCCc2ncco2)nc1 [Proxalutamide, proxalutamide]	No (Potency EC50 or IC50 < 10 µM)	No	–	–	–	> 50	–
CC(C)OC(=O)[C@H](C)N[P@](=O)(OC[C@H]1O[C@@H](n2ccc(=O)[nH]c2=O)[C@](C)(F)[C@@H]1O)Oc1ccccc1 [Sofosbuvir, sofosbuvir]	No (Potency EC50 or IC50 < 10 µM)	No	> 50	–	–	–	–
O=C(Nc1ncc([N+](=O)[O-])s1)c1ccccc1O [Tizoxanide, tizoxanide]	–	–	> 100	–	–	–	–
bemnifosbuvir	No (Potency EC50 or IC50 < 10 µM)	No	–	–	–	> 50	–
ivermectin	Yes (Potency EC50 or IC50 < 10 µM)	Yes	–	–	–	–	+NA
